# Source: patent US9402875B2, “Amidated dopamine neuron stimulating peptide restoration of mitochondrial activity” (University of Kentucky Research Foundation, priority 2006, dated 2016)
# Entries after “also recorded” stand apart in the source; their conditions may differ. Ends that are not written are not given here.
# System: mitochondria of substantia nigra and striatum
# Assay: Mitochondrial State III respiration 28 days after bilateral intranigral DNSP-11
# Type: in vivo, rat
# Details: 28 days post bilateral intranigral 30 μg
# Description: Six five-month-old male F344 rats received bilateral intranigral injections of 30 μg DNSP-11. Six age and sex-matched controls received injections of the same volume of vehicle (citrate buffer). Twenty-eight days after test material administration, the animals were euthanized by CO2 anesthesia and the brain samples rapidly dissected. The striatum and substantia nigra were isolated quickly and carefully using a rat brain matrix for F344 rats.
# Mitochondrial respiration was assessed using a miniature Clark-type electrode, in a sealed, thermostatic and continuously stirred chamber. Mitochondria were added to the chamber to yield a final protein concentration of 1 mg/ml. The substrate concentrations were 5.0 mM/2.5 mM for glutamate/malate and pyruvate/malate or 10 mM for succinate+[…] rotenone or α-glycerophosphate. State 3 respiration was initiated by the addition of 150 ηmols ADP. The respiratory control ratio was calculated as respiration in the presence of ADP (state 3)/respiration in absence of ADP (state 4). ADP/0 ratios were determined by dividing the amount of ADP phosphorylated during State III respiration by the amount of oxygen consumed. NAD-linked substrates, e.g. glutamate and pyruvate, utilize complexes I, III, IV in their oxidation, succinate utilizes complexes II, III, IV and α-glycerophosphate ultilizes III, IV. […]
substance,measurement,setting,value
"PPEAPAEDRSL-NH2 [DNSP-11, PPEAPAEDRSL-amide]",State III oxygen consumption / oxidative phosphorylation vs vehicle,striatum,reached statistical significance; also recorded: increased
same,State III oxygen consumption / oxidative phosphorylation vs vehicle,"substantia nigra, n=2",trend towards an increase; also recorded: increased
